# Data: PMC4865847, “Putative histidine kinase inhibitors with antibacterial effect against multi-drug resistant clinical isolates identified by in vitro and in silico screens” (Scientific Reports, 2016)
# Where “and” joins values, the source holds several entries; their conditions need not be identical. Equal entries are not always repeated. Where two headings read alike, the source gives them in different places. Marks after values point to notes of the source that are not given here.
# Legend:
# [1] = system: Staphylococcus aureus; experiment: Antibacterial susceptibility testing (MIC/MBC), S. aureus; type: cell-based; conditions: Staphylococcus aureus; for MBC: read-out: MBC S. aureus DSM 20231
# Description: (§1) Minimal inhibitory concentrations (MICs) were determined following a standard double-dilution method. […] For S. pneumoniae MICs were determined by adapting the standard double-dilution method to anaerobic conditions and of this microorganism (use of Todd Hewitt Yeast extract with 200 U/mL of catalase and continuous monitoring of growth).
# [2] = system: Klebsiella pneumoniae; experiment: Antibacterial susceptibility testing (MIC), K. pneumoniae; type: cell-based; conditions: Klebsiella pneumoniae, ATCC700603, strain ATCC 700603
# Description: (§2) Bacterial strains used in this study for antibacterial susceptibility testing (Table S5) were propagated using standard microbiological procedures. Minimal inhibitory concentrations (MICs) were determined following a standard double-dilution method. MICs were recorded as the lowest concentration of the compound where no visible growth was observed. After plating the dilutions around the MIC or growing them in fresh MH media, minimal bactericidal concentration (MBC) was recorded as the lowest concentration of the compound at which no colonies were formed or no growth was observed, respectively. For S. pneumoniae MICs were determined by adapting the standard double-dilution method to anaerobic conditions and of this microorganism (use of Todd Hewitt Yeast extract with 200 U/mL of catalase and continuous monitoring of growth).
# [3] = system: Escherichia coli; experiment: Antibacterial susceptibility testing (MIC/MBC), E. coli; type: cell-based
# Description: as §1
# [4] = target: T1, E. coli PhoR (PhoR^E) (Escherichia coli, UniProt P08400); experiment: In vitro autophosphorylation kinase assay with γ-32P-ATP, PhoR^E; type: biochemical; conditions: autophosphorylation, one time point (30 sec), 10% DMSO
# T1 construct: The catalytic portion (DHp and CA domain) of E. coli PhoR (PhoR^E); made in house; host or cells: E. coli RIL
# T1 sequence (P08400 210-425): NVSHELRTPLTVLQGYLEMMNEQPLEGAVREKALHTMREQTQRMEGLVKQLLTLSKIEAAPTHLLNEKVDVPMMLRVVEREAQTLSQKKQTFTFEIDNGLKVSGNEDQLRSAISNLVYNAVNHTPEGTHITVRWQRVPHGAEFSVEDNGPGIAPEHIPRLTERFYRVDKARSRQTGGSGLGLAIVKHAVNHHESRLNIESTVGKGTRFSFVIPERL
# Description: (§3) To evaluate the inhibitory capacity of selected hits from DSF, SBVS and LBSS in vitro autophosphorylation kinase assays with γ-^32P-ATP were performed as previously described. Ligands were dissolved in 100% DMSO. […] Controls lacking ligands contained an equal concentration of DMSO. Inhibition of autophosphorylation was determined by incubating 0.12 mg/ml (≈4 μM) HK and up to 20 mM fragment in kinase buffer (50 mM Tris HCl, pH 8.5, 50 mM KCl, 5 mM MgCl2, 0.5 mM EDTA and 0.1 mM DTT). Autophosporylation reactions were initiated by addition of 0.1 μCi/μl γ-^32P-ATP containing from 0.03 to 0.06 μM ATP (final concentrations). Autophosphorylation was quenched with 2xSDS-PAGE sample buffer supplemented with 50 mM EDTA. […] After electrophoresis, the bottoms of the gels were removed to lower the background from the unincorporated radiolabeled ATP. Gels were dried without staining on a Bio-Rad Gel Air drying system and the phosphorylated protein was quantified by phosphor-imaging. Prism GraphPad was used for curve fitting and statistical analysis.
# [5] = system: Streptococcus suis; experiment: Antibacterial susceptibility testing (MIC), S. suis; type: cell-based; conditions: Streptococcus suis, read-out: MIC Streptococcus suis 3881/S10, strain 3881/S10
# Description: as §2
# [6] = system: Streptococcus pneumoniae; experiment: Antibacterial susceptibility testing (MIC), S. pneumoniae; type: cell-based; conditions: strain 49619
# Description: as §2
# [7] = target: T2, S. pneumoniae WalK (Streptococcus pneumoniae, UniProt Q8DPL8); experiment: In vitro autophosphorylation kinase assay with γ-32P-ATP, WalK; type: biochemical; conditions: autophosphorylation, one time point (30 sec), 10% DMSO
# T2 construct: WalK (amino acids from 208 to 449); N-terminal His6-3C site of vector pOPINF (own knowledge of the vector); made in house; host or cells: E. coli RIL
# T2 sequence (Q8DPL8 208-449): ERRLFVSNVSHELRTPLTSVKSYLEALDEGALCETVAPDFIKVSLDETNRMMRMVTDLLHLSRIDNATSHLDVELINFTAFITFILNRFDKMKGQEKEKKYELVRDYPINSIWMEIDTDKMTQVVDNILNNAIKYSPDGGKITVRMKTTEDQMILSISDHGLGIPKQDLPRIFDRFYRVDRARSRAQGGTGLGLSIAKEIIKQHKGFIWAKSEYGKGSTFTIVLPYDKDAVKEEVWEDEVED
# Description: as §3
# [8] = system: Stenotrophomonas maltophilia; experiment: Antibacterial susceptibility testing (MIC), S. maltophilia; type: cell-based; conditions: clinical isolate B32/1, read-out: MIC S. maltophilia B32/1
# Description: as §2
# [9] = Hemolysis assay; type: cell-based; conditions: human; erythrocytes from a healthy donor, up to 500 μg/ml, three independent incubations; read-out: LC50 hemolysis
# Description: Hemolytic activity against human erythrocytes taken from a healthy donor was measured as previously described. The hemolysis experiments were carried out in accordance with the guidelines of the United Arab Emirates University (UAEU) Research Ethics Review Board. All experimental protocols were approved by the Research Ethics Review Board of UAEU and informed consent was obtained from all donors.
# [10] = system: Pseudomonas aeruginosa; experiment: Antibacterial susceptibility testing (MIC), P. aeruginosa; type: cell-based; conditions: Pseudomonas aeruginosa, ATCC27853; strain ATCC 27853
# Description: as §2
# [11] = system: Acinetobacter baumannii; experiment: Antibacterial susceptibility testing (MIC), A. baumannii; type: cell-based; conditions: MDR clinical isolate NM8, read-out: MIC A. baumannii NM8
# Description: as §2
# [12] = system: Staphylococcus epidermidis; experiment: Antibacterial susceptibility testing (MIC/MBC), S. epidermidis; type: cell-based; conditions: for MBC / MIC: Staphylococcus epidermidis; for MIC S. epidermidis DSM 20044: strain DSM 20044
# Description: as §1
# [13] = target: T3, T. maritima HK853 (Thermotoga maritima, UniProt Q9WZV7); experiment: In vitro autophosphorylation kinase assay with γ-32P-ATP, HK853; type: biochemical; conditions: autophosphorylation, one time point (30 sec), 10% DMSO; read-out: IC50 HK853
# T3 sequence (Q9WZV7 232-489): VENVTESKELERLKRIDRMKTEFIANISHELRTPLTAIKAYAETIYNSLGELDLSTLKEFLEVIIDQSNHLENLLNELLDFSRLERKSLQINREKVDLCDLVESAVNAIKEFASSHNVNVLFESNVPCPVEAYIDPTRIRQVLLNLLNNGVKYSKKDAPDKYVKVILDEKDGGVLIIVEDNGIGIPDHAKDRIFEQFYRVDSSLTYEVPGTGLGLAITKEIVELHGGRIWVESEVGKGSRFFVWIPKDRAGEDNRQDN
# Description: (§4) To evaluate the inhibitory capacity of selected hits from DSF, SBVS and LBSS in vitro autophosphorylation kinase assays with γ-^32P-ATP were performed as previously described. Ligands were dissolved in 100% DMSO. […] Controls lacking ligands contained an equal concentration of DMSO. Inhibition of autophosphorylation was determined by incubating 0.12 mg/ml (≈4 μM) HK and up to 20 mM fragment in kinase buffer (50 mM Tris HCl, pH 8.5, 50 mM KCl, 5 mM MgCl2, 0.5 mM EDTA and 0.1 mM DTT). Autophosporylation reactions were initiated by addition of 0.1 μCi/μl γ-^32P-ATP containing from 0.03 to 0.06 μM ATP (final concentrations). Autophosphorylation was quenched with 2xSDS-PAGE sample buffer supplemented with 50 mM EDTA. Samples were applied without heating to 15% (w/v) Tris-glycine SDS-polyacrylamide gels. After electrophoresis, the bottoms of the gels were removed to lower the background from the unincorporated radiolabeled ATP. Gels were dried without staining on a Bio-Rad Gel Air drying system and the phosphorylated protein was quantified by phosphor-imaging. Prism GraphPad was used for curve fitting and statistical analysis.
# [14] = target: T1, E. coli PhoR (PhoR^E); experiment: Aggregation analysis by native-PAGE, PhoR^E; conditions: 2 mM (S5 and S6 5 mM), 10% DMSO
# Description: (§5) E. coli PhoR and EnvZ, and S. aureus PhoR ([…], final concentration) were prepared in kinase buffer. […] DMSO in the assays was maintained to a final concentration 10% (v/v). After 30 min of incubation at room temperature Native polyacrylamide gel electrophoresis (Native-PAGE) loading buffer was added and samples loaded. Coomassie blue staining was used for protein visualization.
# [15] = target: T4, S. aureus PhoR (PhoR^S) (Staphylococcus aureus, UniProt Q2FXN7); experiment: In vitro autophosphorylation kinase assay with γ-32P-ATP, PhoR^S; type: biochemical; conditions: IC50 PhoR^S, autophosphorylation, one time point (30 sec), 10% DMSO
# T4 sequence (Q2FXN7 entry or part of it): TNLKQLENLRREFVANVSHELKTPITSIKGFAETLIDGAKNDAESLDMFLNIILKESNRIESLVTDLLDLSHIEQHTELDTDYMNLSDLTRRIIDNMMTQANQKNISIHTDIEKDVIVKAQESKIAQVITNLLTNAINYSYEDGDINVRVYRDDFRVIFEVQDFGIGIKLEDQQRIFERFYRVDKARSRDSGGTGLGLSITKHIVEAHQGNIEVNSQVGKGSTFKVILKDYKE
# Description: as §4
# [16] = target: T4, S. aureus PhoR (PhoR^S); experiment: Aggregation analysis by native-PAGE, PhoR^S; conditions: 2 mM (S5 and S6 5 mM), 10% DMSO
# Description: as §5
# [17] = Escherichia coli, strain CFT 073, read-out: MIC E. coli CFT 073
# [18] = DSM20044, strain DSM 20044, read-out: MIC S. epidermidis DSM 20044
smiles,measurement,setting,value
NCCc1ccc2c(c1)[nH]c1ccccc12 [F2.3],MIC,"[1]; ATCC reference strain 25293, read-out: MIC S. aureus 25293",125 µg/mL
same,MBC,"[1]; DSM20231, strain DSM 20231",> 500 µg/mL
same,MIC,"[1]; MRSA clinical isolate 127/08, read-out: MIC S. aureus 127/08",250 µg/mL
same,MIC,"[1]; MRSA clinical isolate 145/08, read-out: MIC S. aureus 145/08",250 µg/mL
same,MIC,"[1]; MRSA clinical isolate 274/08, read-out: MIC S. aureus 274/08",> 500 µg/mL
same,MIC,"[1]; MRSA, MRSA clinical isolate S908, read-out: MIC S. aureus S908",250 µg/mL
same,MIC,"[1]; MRSA, MRSA clinical isolate T4/6, read-out: MIC S. aureus T4/6",250 µg/mL
same,MIC,"[1]; MRSA, MRSA clinical isolate V4180, read-out: MIC S. aureus V4180",250 µg/mL
same,MIC,"[1]; MRSA, summary over strains, read-out: MICs for the MRSA strains and S. aureus 25293",125 to 500 µg/mL
same,MIC,[2],> 500 µg/mL
same,MIC,"[3]; Escherichia coli, ATCC25276, strain ATCC 25276, read-out: MIC E. coli ATCC 25276",> 500 µg/mL
same,MIC,[3]; [17],> 500 µg/mL
same,IC50,[4]; IC50 PhoR^E,> 2000 µM
same,MIC,[5],> 500 µg/mL
same,MIC,[6],4 µg/mL
same,IC50,[7]; IC50 WalK,> 2000 µM
same,MIC,[8],> 500 µg/mL
same,HC50,[9],> 500 µg/mL
same,MIC,[10],> 500 µg/mL
same,MIC,[11],> 500 µg/mL
same,MBC,"[12]; DSM20044, strain DSM 20044",63 µg/mL
same,MIC,[12]; [18],31 to 500 µg/mL
same,MIC,"[12]; clinical isolate T7/3, read-out: MIC S. epidermidis T7/3",31 µg/mL
same,MIC,"[12]; clinical isolate T37/8, read-out: MIC S. epidermidis T37/8",125 µg/mL
same,MIC,"[12]; clinical isolate T6119, read-out: MIC S. epidermidis T6119",125 µg/mL
same,MIC,"[12]; strain RP62A (biofilm producer), read-out: MIC S. epidermidis RP62A",125 µg/mL
same,MIC,"[12]; strain RP62A/1 (non-biofilm producer), read-out: MIC S. epidermidis RP62A/1",125 µg/mL
same,MIC,"[12]; summary over strains, read-out: MICs for the S. epidermidis strains",31 to 250 µg/mL
same,MIC S. epidermidis DSM 20044,[12],31 µg/mL
CC(=O)Nc1cccc(C(C)NCc2cccc(Br)c2)c1 (centres unmarked) [S6],MBC,"[1]; DSM20231, strain DSM 20231",> 500 µg/mL
same,MIC,"[1]; DSM20231, strain DSM 20231, read-out: MIC S. aureus DSM 20231",> 500 µg/mL
same,IC50,[13],> 5000 µM
same,"HK aggregation, PhoR^E",[14],do not cause HK aggregation
same,MBC,"[3]; Escherichia coli, strain CFT 073, read-out: MBC E. coli CFT 073",> 500 µg/mL
same,MIC,[3]; [17],500 µg/mL
same,MIC E. coli CFT 073,[3]; strain CFT 073,500^# μg/ml
same,IC50,[4]; read-out: IC50 PhoR^E,372 µM and 370 µM
same,IC50,[7]; IC50 WalK,~1000 µM
same,IC50,[7]; read-out: IC50 WalK,> 1000 µM
same,IC50,[15],1140 µM
same,MBC,"[12]; DSM20044, strain DSM 20044",> 500 µg/mL
same,MIC,[12]; [18],500 µg/mL
same,MIC S. epidermidis DSM 20044,[12],500^# μg/ml
same,"HK aggregation, PhoR^S",[16],do not cause HK aggregation
